Drawing on publication PMC8076852 (Frontiers in Molecular Biosciences, 2021), this text covers K0.5 and Km for two compounds.

Data set [1] concerns NCCCNCCCCNCCCN
The data set can be described thus: purified protein. Conditions: pH 8.0; 37.0 °C.

Data set [2] relates to T1, R3C2.
T1 construct: gene speG

For data set [3], the system named is T2, R1C3.
T2 construct: gene speG

Data set [4] deals with T3, R1C1.
T3 construct: gene speG

Data set [5] relates to T4, R1C2.
T4 construct: gene speG

In data set [1], “(Vibrio cholerae O1 biovar El Tor str. N16961)” showed a K0.5 of 0.222 ± 0.005 mM.
Consider `NCCCNCCCCNCCCN` [spermine], for which the Michaelis-Menten constant (Km) in data set [2] stood at 98 ± 8 µM; in data set [3] it was 244 ± 20 µM; in data set [4], 2.53 ± 0.71 mM; in data set [5], 364 ± 8 µM.

What is called Km is the concentration of substrate that gives half-maximal velocity.
